Values quoted from earlier work as cited in patent US6710051B1, “Screening method” (Klaus Trier APS, priority 1997, dated 2004).
Read-outs that look alike come from different tables or passages of the source.

Target: T1, skeletal RyR (Oryctolagus cuniculus, UniProt P11716)
T1 construct: Structure-activity Relationship of Xanthines and Skeletal Muscle Ryanodine Receptor/Ca^2+ Release Channel; from tissue; host or cells: Skeletal muscle
Settings: cited from earlier work; for Bound [3H]ryanodine % of control / Bound [3H]ryanodine pmol/mg protein / Bound [3H]ryanodine, % of control, +1 mmol/l AMPPCP / Bound [3H]ryanodine, % of control, +3 mmol/l AMP: xanthine […]; for Bound [3H]ryanodine % of control / Bound [3H]ryanodine pmol/mg protein: 1 mmol/l AMPPCP; for Bound [3H]ryanodine pmol/mg protein: means±SD of 3-4 experiments; for effect on the [3H] ryanodine binding compared to the control xanthine: Table 3

[1] = control 1,3-dimethylxanthine = 100
[2] = control 3,7-dimethylxanthine = 100

T1 sequence (P11716 whole entry): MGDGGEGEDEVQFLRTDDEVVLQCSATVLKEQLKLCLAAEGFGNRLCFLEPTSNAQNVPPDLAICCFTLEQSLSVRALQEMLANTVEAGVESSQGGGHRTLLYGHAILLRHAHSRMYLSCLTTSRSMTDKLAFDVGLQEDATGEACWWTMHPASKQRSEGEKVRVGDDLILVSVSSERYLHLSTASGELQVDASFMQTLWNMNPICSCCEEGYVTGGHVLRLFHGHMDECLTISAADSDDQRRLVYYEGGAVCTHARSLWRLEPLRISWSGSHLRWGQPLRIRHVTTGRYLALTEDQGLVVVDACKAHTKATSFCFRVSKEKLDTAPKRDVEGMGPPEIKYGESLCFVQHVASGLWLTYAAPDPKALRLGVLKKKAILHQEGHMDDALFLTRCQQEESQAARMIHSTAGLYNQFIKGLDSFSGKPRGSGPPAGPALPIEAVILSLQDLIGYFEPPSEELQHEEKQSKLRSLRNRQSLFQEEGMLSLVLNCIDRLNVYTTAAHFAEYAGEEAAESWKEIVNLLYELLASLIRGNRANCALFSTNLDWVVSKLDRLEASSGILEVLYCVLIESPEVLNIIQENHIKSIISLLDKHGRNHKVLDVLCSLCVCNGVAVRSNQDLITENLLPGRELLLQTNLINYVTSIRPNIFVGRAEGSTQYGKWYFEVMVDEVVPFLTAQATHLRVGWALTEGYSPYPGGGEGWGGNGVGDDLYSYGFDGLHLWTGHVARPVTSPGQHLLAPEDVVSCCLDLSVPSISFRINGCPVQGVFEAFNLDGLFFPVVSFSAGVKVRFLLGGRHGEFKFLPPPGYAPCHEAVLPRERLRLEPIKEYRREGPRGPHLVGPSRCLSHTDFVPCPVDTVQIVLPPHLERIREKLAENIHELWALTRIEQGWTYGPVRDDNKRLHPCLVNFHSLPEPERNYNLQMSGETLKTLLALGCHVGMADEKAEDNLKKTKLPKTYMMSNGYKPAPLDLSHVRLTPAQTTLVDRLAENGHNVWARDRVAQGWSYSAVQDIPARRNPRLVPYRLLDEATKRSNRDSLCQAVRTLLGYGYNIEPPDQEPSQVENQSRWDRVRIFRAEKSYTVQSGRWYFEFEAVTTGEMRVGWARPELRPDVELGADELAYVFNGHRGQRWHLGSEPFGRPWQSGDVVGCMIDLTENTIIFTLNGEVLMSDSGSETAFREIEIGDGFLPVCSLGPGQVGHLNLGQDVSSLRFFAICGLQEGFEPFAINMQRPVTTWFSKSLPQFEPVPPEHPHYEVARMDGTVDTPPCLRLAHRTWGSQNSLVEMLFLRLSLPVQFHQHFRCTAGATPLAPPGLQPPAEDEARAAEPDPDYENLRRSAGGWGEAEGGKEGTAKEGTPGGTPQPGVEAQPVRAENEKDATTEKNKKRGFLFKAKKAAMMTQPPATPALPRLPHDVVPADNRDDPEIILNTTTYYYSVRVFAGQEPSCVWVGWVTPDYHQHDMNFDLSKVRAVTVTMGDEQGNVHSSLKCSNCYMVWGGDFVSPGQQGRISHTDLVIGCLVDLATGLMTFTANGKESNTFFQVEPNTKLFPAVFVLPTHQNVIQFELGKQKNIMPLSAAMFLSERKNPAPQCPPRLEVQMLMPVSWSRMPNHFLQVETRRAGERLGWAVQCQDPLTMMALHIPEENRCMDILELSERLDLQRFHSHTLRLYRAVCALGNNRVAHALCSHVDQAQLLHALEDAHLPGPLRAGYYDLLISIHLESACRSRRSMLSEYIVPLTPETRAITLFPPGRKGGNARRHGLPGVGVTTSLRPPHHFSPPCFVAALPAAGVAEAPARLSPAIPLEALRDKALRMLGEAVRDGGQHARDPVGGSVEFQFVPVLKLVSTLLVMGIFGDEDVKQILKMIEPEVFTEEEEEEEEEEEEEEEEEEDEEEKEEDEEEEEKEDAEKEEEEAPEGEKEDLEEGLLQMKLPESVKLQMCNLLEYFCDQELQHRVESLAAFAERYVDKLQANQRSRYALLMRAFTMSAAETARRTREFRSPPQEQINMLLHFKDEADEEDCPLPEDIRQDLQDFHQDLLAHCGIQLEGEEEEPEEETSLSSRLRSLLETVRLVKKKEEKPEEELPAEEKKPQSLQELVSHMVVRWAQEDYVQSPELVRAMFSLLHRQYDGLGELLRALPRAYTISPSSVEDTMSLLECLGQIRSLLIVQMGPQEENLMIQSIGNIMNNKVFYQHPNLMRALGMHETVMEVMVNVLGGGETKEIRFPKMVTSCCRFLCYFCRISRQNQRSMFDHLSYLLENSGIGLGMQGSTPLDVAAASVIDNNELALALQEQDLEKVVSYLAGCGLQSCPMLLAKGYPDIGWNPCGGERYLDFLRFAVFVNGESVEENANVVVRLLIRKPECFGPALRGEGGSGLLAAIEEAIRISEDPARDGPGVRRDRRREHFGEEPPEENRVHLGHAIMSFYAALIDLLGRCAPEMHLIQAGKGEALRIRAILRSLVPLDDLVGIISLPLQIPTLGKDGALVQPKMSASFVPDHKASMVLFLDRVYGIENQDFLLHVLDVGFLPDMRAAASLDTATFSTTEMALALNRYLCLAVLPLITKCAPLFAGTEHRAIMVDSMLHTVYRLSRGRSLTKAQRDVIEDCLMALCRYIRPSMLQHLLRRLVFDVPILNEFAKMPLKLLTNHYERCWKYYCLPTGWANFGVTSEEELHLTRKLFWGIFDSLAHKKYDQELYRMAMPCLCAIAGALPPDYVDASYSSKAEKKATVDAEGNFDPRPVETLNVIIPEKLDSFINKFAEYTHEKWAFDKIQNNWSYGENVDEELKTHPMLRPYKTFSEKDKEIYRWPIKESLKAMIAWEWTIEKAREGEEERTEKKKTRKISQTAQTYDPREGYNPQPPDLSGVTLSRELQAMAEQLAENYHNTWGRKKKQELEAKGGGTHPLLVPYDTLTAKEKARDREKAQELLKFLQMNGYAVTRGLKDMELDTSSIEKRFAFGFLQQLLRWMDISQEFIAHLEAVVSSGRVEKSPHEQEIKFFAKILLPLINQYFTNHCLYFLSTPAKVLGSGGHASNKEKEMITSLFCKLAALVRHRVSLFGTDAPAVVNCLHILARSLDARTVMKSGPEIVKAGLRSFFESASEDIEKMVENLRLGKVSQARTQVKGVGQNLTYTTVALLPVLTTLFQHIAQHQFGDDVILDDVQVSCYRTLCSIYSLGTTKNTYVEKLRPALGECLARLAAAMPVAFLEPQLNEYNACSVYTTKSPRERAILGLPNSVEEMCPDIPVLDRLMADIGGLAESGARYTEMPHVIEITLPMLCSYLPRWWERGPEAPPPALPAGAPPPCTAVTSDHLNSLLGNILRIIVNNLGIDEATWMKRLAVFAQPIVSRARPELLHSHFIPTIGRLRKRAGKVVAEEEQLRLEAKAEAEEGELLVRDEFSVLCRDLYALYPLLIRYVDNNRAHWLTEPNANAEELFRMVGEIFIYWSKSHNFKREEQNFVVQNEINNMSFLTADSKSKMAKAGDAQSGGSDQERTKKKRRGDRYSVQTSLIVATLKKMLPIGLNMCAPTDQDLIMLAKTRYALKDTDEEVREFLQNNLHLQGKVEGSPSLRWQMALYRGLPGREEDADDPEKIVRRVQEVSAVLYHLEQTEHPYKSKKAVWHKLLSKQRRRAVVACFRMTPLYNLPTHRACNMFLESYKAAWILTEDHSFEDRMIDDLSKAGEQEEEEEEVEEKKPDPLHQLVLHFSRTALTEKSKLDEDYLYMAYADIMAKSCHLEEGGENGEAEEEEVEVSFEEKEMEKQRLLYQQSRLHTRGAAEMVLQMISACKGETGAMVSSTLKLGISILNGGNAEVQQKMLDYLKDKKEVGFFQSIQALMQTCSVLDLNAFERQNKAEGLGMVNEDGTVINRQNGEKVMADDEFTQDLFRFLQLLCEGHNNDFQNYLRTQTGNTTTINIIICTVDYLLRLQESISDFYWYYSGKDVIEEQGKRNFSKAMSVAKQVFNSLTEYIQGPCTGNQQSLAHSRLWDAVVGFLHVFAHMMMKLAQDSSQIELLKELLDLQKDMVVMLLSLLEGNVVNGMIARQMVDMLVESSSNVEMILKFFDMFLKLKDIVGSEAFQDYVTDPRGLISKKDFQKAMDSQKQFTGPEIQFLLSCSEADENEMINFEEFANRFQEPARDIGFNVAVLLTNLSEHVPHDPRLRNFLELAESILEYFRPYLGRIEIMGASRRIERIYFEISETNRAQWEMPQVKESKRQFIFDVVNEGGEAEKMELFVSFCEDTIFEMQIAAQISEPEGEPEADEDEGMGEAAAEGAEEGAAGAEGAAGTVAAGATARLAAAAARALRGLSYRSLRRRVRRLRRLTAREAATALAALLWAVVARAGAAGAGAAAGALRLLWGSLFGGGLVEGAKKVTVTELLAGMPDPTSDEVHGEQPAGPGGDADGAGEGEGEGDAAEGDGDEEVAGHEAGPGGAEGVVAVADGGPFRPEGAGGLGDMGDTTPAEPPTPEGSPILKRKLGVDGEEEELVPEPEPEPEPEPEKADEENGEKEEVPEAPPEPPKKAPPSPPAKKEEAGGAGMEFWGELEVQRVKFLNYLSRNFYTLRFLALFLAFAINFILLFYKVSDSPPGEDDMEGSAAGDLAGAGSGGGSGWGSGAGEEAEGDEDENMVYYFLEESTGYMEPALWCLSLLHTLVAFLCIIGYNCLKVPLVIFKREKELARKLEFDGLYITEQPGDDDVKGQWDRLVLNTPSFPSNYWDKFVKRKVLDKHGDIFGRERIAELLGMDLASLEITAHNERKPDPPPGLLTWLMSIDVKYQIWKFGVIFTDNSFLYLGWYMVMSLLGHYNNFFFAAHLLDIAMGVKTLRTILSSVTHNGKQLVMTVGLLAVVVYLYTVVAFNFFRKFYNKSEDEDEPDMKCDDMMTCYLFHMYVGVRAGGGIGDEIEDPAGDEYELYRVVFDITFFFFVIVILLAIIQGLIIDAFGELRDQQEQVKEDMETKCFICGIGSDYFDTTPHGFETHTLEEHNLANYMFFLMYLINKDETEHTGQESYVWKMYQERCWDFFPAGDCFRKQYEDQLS

Row | Structure (SMILES) | Bound [3H]ryanodine % of control [1] | Bound [3H]ryanodine pmol/mg protein | Bound [3H]ryanodine, % of control, +1 mmol/l AMPPCP (control (-xanthine) = 100) | Bound [3H]ryanodine, % of control, +3 mmol/l AMP (control (-xanthine) = 100) | Bound [3H]ryanodine % of control [2] | Bound [3H]ryanodine % of control (control (-xanthine) = 100) | effect on the [3H] ryanodine binding compared to the control xanthine
1 | Cn1c(=O)c2c(ncn2CCCl)n(C)c1=O [7β-Chloroethyl-1,3-dimethylxanthine] | 135 ± 6 % of control | 3.88 ± 0.16 pmol/mg protein | 230 ± 9 % of control | 256 ± 34 % of control | – | – | –
2 | C#CCn1c(=O)c2c(ncn2C)n(C)c1=O [3,7-Dimethyl-1-propargylxanthine] | – | 3.88 ± 0.10 pmol/mg protein | 230 ± 6 % of control | 201 ± 33 % of control | 144 ± 3 % of control | – | –
3 | Cn1c(=O)c2[nH]c(CCC(=O)O)nc2n(C)c1=O [8-Propionic acid 1,3-dimethylxanthine] | 60 ± 3 % of control | 1.73 ± 0.09 pmol/mg protein | 102 ± 5 % of control | 100 ± 11 % of control | – | – | –
4 | Cn1c(=O)[nH]c2nc[nH]c2c1=O [1-Methylxanthine] | – | 3.02 ± 0.38 pmol/mg protein | 179 ± 22 % of control | 167 ± 16 % of control | – | 179 ± 22 % of control | –
5 | Cn1c(=O)[nH]c(=O)c2[nH]cnc21 [3-Methylxanthine] | – | 2.26 ± 0.15 pmol/mg protein | 134 ± 9 % of control | 137 ± 10 % of control | – | 134 ± 9 % of control | –
6 | CC(=O)CCCCn1c(=O)c2c(ncn2C)n(C)c1=O [1-(5-Oxohexyl)-3,7-dimethylxanthine] | – | 3.18 ± 0.08 pmol/mg protein | 188 ± 5 % of control | 185 ± 25 % of control | 118 ± 3 % of control | – | –
7 | Cn1c(=O)c2[nH]c(Cl)nc2n(C)c1=O [8-Chloro-1,3-dimethylxanthine] | 68 ± 4 % of control | 1.96 ± 0.13 pmol/mg protein | 116 ± 17 % of control | 108 ± 14 % of control | – | – | –
8 | Cn1c(=O)[nH]c2c(ncn2C)c1=O [1,9-Dimethylxanthine] | – | 1.42 ± 0.23 pmol/mg protein | 84 ± 14 % of control | 86 ± 18 % of control | – | 84 ± 14 % of control | less than 110%
9 | Cn1cnc2c(=O)[nH]c(=O)n(C)c21 [3,9-Dimethylxanthine] | – | 2.42 ± 0.34 pmol/mg protein | 143 ± 20 % of control | 141 ± 11 % of control | – | 143 ± 20 % of control | –
10 | CCCn1cnc2[nH]c(=O)[nH]c(=O)c21 [7-Propylxanthine] | – | 4.57 ± 0.20 pmol/mg protein | 270 ± 12 % of control | 234 ± 14 % of control | – | 270 ± 12 % of control | –
11 | Cn1c(=O)c2[nH]c(-c3ccccc3)nc2n(C)c1=O [8-Phenyl-1,3-dimethylxanthine] | 58 ± 9 % of control | 1.67 ± 0.31 pmol/mg protein | 99 ± 18 % of control | 103 ± 14 % of control | – | – | –
12 | Cn1c(=O)c2[nH]c(C3CCCC3)nc2n(C)c1=O [8-Cyclopentyl-1,3-dimethylxanthine] | 78 ± 8 % of control | 2.25 ± 0.28 pmol/mg protein | 133 ± 6 % of control | 142 ± 14 % of control | – | – | –
13 | CCCn1c(=O)[nH]c(=O)c2[nH]cnc21 [3-Propylxanthine] | – | 3.82 ± 0.23 pmol/mg protein | 226 ± 14 % of control | 203 ± 14 % of control | – | 226 ± 14 % of control | –
14 | CCCn1c(=O)c2c(ncn2C)n(CCC)c1=O [1,3-Dipropyl-7-methylxanthine] | – | 4.96 ± 0.39 pmol/mg protein | 295 ± 23 % of control | 326 ± 30 % of control | – | – | –
15 | Cn1c(=O)c2ncn(C)c2n(C)c1=O [1,3,9-Trimethylxanthine] | – | 1.77 ± 0.12 pmol/mg protein | 105 ± 7 % of control | 103 ± 15 % of control | – | – | –
16 | CN1CN(C)c2c1[nH]c(=O)[nH]c2=O [7,9-Dimethylxanthine] | – | 1.73 ± 0.22 pmol/mg protein | 102 ± 13 % of control | 100 ± 15 % of control | – | 102 ± 13 % of control | –
17 | CCCn1cnc2c(=O)[nH]c(=O)[nH]c21 [9-Propylxanthine] | – | 1.62 ± 0.20 pmol/mg protein | 96 ± 12 % of control | 97 ± 23 % of control | – | 96 ± 12 % of control | –
18 | CCCCCCn1c(=O)c2c(ncn2C)n(C)c1=O [1-Hexyl-3,7-dimethylxanthine] | – | 6.99 ± 0.80 pmol/mg protein | 414 ± 47 % of control | 449 ± 28 % of control | 259 ± 24 % of control | – | more than 200%
19 | Cn1c(=O)c2c(ncn2CCO)n(C)c1=O [7β-Hydroxyethyl-1,3-dimethylxanthine] | 73 ± 4 % of control | 2.10 ± 0.26 pmol/mg protein | 124 ± 15 % of control | 134 ± 15 % of control | – | – | –
20 | CC(C)Cn1c(=O)n(C)c(=O)c2[nH]cnc21 [3-Isobutyl-1-methylxanthine] | – | 2.96 ± 0.33 pmol/mg protein | 175 ± 20 % of control | 139 ± 11 % of control | – | 175 ± 20 % of control | –
21 | Cn1c(=O)[nH]c2ncn(C)c2c1=O [1,7-Dimethylxanthine] | – | 6.08 ± 0.47 pmol/mg protein | 360 ± 28 % of control | 378 ± 34 % of control | – | 360 ± 28 % of control | –
22 | Cn1c(=O)c2c(ncn2CC(O)CO)n(C)c1=O (stereo not drawn) [7-(2,3-Dihydroxypropyl)-1,3-dimethylxanthine] | 69 ± 6 % of control | 1.97 ± 0.16 pmol/mg protein | 117 ± 9 % of control | 123 ± 16 % of control | – | – | –
23 | Cc1nc2[nH]c(=O)[nH]c(=O)c2[nH]1 [8-Methylxanthine] | – | 1.61 ± 0.33 pmol/mg protein | 95 ± 20 % of control | 90 ± 11 % of control | – | 95 ± 20 % of control | –
24 | Cn1c(=O)c2[nH]c(-c3ccc(S(=O)(=O)O)cc3)nc2n(C)c1=O [8-(p-Sulfophenyl)-1,3-dimethylxanthine] | 54 ± 6 % of control | 1.55 ± 0.28 pmol/mg protein | 92 ± 17 % of control | 91 ± 16 % of control | – | – | –
